“And” between values parts separate entries of the source, which are not always exact repeats. Identical values can stand only once.
What was measured:
D(2) dopamine receptor = D(2) dopamine receptor (Rattus norvegicus, UniProt P61169); experiment: In vitro radioligand binding assay on Dopamine receptor D2 of rat striatum using [3H]- spiperone; assay type: tissue-based
[1] = biological target: T1, Adrenergic receptor alpha-1 (Rattus norvegicus, UniProt P15823+P23944+P43140); experiment: In vitro radioligand binding assay on adrenaline Alpha-1 adrenergic receptor of rat cortex using [3H]- prazosin; assay type: tissue-based
T1 sequence (P15823 whole entry): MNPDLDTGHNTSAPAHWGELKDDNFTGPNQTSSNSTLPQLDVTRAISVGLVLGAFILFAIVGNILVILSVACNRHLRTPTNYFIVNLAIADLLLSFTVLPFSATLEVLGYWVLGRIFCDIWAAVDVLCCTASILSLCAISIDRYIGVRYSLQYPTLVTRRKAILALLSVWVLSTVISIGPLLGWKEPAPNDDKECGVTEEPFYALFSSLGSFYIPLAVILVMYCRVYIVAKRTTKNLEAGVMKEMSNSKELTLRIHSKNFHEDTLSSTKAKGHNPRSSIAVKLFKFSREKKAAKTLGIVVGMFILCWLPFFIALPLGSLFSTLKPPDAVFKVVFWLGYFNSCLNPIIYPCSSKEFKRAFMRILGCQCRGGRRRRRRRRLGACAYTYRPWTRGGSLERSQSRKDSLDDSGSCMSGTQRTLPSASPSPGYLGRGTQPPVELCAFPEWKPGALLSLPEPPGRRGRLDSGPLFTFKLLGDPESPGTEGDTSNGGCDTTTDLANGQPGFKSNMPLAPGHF
T1 sequence (P23944 whole entry): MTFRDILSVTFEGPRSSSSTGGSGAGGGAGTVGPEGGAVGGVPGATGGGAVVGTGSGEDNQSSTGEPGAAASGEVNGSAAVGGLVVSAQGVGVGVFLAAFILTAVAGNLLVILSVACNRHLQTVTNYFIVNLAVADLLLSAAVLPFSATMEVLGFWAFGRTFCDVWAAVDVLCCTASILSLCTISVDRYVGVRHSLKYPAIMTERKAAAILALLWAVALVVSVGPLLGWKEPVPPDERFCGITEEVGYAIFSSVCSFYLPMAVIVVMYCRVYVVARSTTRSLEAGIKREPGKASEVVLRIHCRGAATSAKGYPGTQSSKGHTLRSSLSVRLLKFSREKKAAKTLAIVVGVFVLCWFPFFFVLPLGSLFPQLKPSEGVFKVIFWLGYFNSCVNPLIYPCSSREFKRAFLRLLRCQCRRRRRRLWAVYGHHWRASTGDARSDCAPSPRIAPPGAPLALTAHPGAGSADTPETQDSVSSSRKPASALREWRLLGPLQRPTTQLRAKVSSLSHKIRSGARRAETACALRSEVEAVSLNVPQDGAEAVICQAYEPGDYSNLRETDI
T1 sequence (P43140 whole entry): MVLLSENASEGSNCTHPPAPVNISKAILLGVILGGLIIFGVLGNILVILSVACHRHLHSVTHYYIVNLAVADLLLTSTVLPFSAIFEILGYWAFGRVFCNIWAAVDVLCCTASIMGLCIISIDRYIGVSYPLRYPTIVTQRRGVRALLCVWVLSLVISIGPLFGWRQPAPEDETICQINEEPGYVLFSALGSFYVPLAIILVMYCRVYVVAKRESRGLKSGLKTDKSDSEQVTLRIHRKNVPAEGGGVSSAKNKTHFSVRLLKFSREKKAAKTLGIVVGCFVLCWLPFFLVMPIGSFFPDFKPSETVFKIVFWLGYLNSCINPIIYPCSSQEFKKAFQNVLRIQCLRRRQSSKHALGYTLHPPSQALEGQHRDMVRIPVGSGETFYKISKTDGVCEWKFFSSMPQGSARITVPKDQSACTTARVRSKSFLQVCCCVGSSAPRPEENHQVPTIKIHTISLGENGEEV

[2] = biological target: T2, 5-hydroxytryptamine receptor 1A (Rattus norvegicus, UniProt P19327); experiment: Displacement of [3H]8-OH-DPAT from rat hippocampal 5-hydroxytryptamine 1A receptor; assay type: tissue-based, Hippocampus
T2 sequence (P19327 whole entry): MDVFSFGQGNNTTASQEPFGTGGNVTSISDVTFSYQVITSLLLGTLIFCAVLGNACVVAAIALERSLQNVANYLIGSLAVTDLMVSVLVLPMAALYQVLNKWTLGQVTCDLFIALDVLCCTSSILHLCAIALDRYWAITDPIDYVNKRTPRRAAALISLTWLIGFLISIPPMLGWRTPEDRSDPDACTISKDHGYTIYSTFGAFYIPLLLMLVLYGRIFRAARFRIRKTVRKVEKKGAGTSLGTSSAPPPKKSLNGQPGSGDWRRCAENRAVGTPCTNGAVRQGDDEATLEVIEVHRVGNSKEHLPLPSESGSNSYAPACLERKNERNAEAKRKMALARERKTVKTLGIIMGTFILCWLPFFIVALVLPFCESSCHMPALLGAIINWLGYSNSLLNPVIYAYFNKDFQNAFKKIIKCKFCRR

[3] = biological target: T2, 5-hydroxytryptamine receptor 1A; experiment: In vitro radioligand binding assay on 5-hydroxytryptamine 1A receptor using [3H]8-OH-DPAT in rat hippocampus; assay type: tissue-based

Sequence of D(2) dopamine receptor (P61169 whole entry): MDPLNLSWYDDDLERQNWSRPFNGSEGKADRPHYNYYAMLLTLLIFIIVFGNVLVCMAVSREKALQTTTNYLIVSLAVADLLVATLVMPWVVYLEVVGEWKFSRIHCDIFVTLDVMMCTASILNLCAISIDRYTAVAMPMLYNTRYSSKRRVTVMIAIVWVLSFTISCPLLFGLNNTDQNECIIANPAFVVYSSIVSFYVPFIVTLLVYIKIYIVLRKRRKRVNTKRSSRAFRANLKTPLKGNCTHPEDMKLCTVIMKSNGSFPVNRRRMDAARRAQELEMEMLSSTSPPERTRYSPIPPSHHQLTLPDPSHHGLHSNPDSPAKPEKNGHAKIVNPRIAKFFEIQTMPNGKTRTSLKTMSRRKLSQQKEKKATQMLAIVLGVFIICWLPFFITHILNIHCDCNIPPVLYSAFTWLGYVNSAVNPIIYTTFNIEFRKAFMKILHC

| Compound | Ki (D(2) dopamine receptor) | Ki [1] | Ki [2] | IC50 [1] | IC50 [3] |
| --- | --- | --- | --- | --- | --- |
| COc1ccc(CCCCNCCOc2cc(C)cc3c2OCCC3)cc1 | 1.79 nM | 35.1 nM | 0.779 nM | – | – |
| COc1ccc(CCCCNCCOc2c(F)ccc3c2OCCC3)cc1 | 21.3 nM | 71.5 nM | 0.35 nM | – | – |
| CCCN(CCC)[C@H]1CCc2c(F)ccc(O)c2C1 | 614 nM and 400 nM | 6080 nM | 46 nM | – | – |
| COc1ccc(CCCCNCCOc2cc(F)cc3c2OCCC3)cc1 | 0.259 nM | 2.71 nM | 0.221 nM | – | – |
| COc1ccc(CCCCNCCOc2cc(OC)cc3c2OCCC3)cc1 | 1.75 nM | 27.9 nM | 3.07 nM | – | – |
| COc1ccc(CCCCNCCOc2ccc(F)c3c2OCCC3)cc1 | 3.53 nM | 8.77 nM | 0.051 nM | – | – |

Other lines, results leading:

| Ki (D(2) dopamine receptor) | Ki [1] | Ki [2] | IC50 [1] | IC50 [3] | Compound |
| --- | --- | --- | --- | --- | --- |
| 0.489 nM | 14.3 nM | 1.29 nM | – | – | COc1ccc(CCCCNCCOc2cc(Cl)cc3c2OCCC3)cc1 |
| 1.76 nM | 98.4 nM | 0.271 nM | – | – | COc1ccc(CCCCNCCOc2cc(O)cc3c2OCCC3)cc1 |
| 0.581 nM | 5.19 nM | 0.118 nM | – | – | COc1ccc(CCCCNCCOc2cccc3c2OCCC3)cc1 |
| – | 1260 nM | 21.5 nM and 25 nM | – | – | O=C1C2C(C(=O)N1CCCCN1CCN(c3ncccn3)CC1)[C@H]1CC[C@@H]2C1 (some centres undefined) |
| 176 nM | 897 nM | 27.9 nM | 1490 nM | 33.9 nM | COc1ccccc1N1CCN(C[C@@H](C(=O)NC(C)(C)C)c2ccccc2)CC1 |
